Experimental data as given in PubChem BioAssay (NCI).
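Each compound was tested at five concentrations against cells in 96-well plates for 48 hours. TGI is the concentration that stops growth completely.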

How the values were obtained:
Assay in all cases: DTP human tumour cell line panel, 48 h
BT-549 breast = system: BT-549 breast
CAKI-1 renal = system: CAKI-1 renal
HCT-15 colon = system: HCT-15 colon
HOP-92 NSCLC = system: HOP-92 NSCLC
KM12 colon = system: KM12 colon
LOX IMVI melanoma = system: LOX IMVI melanoma
MALME-3M melanoma = system: MALME-3M melanoma
MDA-N = system: MDA-N
NCI-H226 lung = system: NCI-H226 lung
NCI-H23 lung = system: NCI-H23 lung
NCI/ADR-RES ovarian = system: NCI/ADR-RES ovarian
OVCAR-3 ovarian = system: OVCAR-3 ovarian
RXF 393 renal = system: RXF 393 renal
SF-539 CNS = system: SF-539 CNS
SK-MEL-28 melanoma = system: SK-MEL-28 melanoma
SK-OV-3 ovarian = system: SK-OV-3 ovarian
TK-10 renal = system: TK-10 renal
U251 CNS = system: U251 CNS
UACC-62 melanoma = system: UACC-62 melanoma
SNB-75 CNS = system: SNB-75 CNS

SMILES | TGI (BT-549 breast) [µM] | TGI (CAKI-1 renal) [µM] | TGI (HCT-15 colon) [µM] | TGI (HOP-92 NSCLC) [µM] | TGI (KM12 colon) [µM] | TGI (LOX IMVI melanoma) [µM] | TGI (MALME-3M melanoma) [µM] | TGI (MDA-N) [µM] | TGI (NCI-H226 lung) [µM] | TGI (NCI-H23 lung) [µM] | TGI (NCI/ADR-RES ovarian) [µM] | TGI (OVCAR-3 ovarian) [µM] | TGI (RXF 393 renal) [µM] | TGI (SF-539 CNS) [µM] | TGI (SK-MEL-28 melanoma) [µM] | TGI (SK-OV-3 ovarian) [µM] | TGI (TK-10 renal) [µM] | TGI (U251 CNS) [µM] | TGI (UACC-62 melanoma) [µM] | TGI (SNB-75 CNS) [µM]
CC1=C(C(=O)OCCO[N+](=O)[O-])C(c2cccc([N+](=O)[O-])c2)C(C(=O)OC(C)C)=C(C)N1 (stereo not given) | 27.1 | 95.7 | 27.4 | 25.5 | 23.1 | 31.6 | 51.9 | 28.1 | 28.2 | 45.7 | 34.3 | 23.6 | 31.5 | 30.5 | 28.1 | 36.9 | 42.9 | 28.7 | 30.2 | –
Cc1cccc2oc3c(CC(=O)O)cccc3c(=O)c12 | > 100 | > 100 | > 100 | > 100 | > 100 | > 100 | > 100 | > 100 | > 100 | > 100 | > 100 | > 100 | – | > 100 | > 100 | – | > 100 | > 100 | – | –
Nn1c(CCCCCCCCc2nnc(COc3ccc(Cl)cc3Cl)n2N)nnc1COc1ccc(Cl)cc1Cl | > 100 | > 100 | > 100 | > 100 | > 100 | – | > 100 | > 100 | > 100 | > 100 | > 100 | – | > 100 | – | > 100 | – | > 100 | > 100 | > 100 | –
Cc1ccc(N=N/C(=N/NC(=O)c2cc(Cl)ccc2O)c2ccc(N(CCC#N)CCC#N)cc2C)cc1 | 88.7 | > 100 | > 100 | – | > 100 | – | 47.8 | > 100 | 63.7 | 55.9 | > 100 | 55.9 | > 100 | 46.4 | – | 74.2 | 87.2 | > 100 | 59.7 | 86.8
COc1c2c(cc3c1C(=O)c1c(O)cccc1C3=O)CC(O)CC2 (stereo not given) | 43.1 | > 100 | > 100 | 40.1 | > 100 | > 100 | > 100 | > 100 | > 100 | 47 | > 100 | > 100 | – | > 100 | > 100 | 59 | > 100 | > 100 | > 100 | > 100
CN(C)c1ccc(C2CC(c3ccc4ccccc4c3O)=NN2)cc1 (stereo not given) | > 100 | > 100 | > 100 | > 100 | > 100 | – | > 100 | > 100 | > 100 | > 100 | > 100 | > 100 | > 100 | 70.5 | > 100 | > 100 | > 100 | > 100 | > 100 | > 100
O=c1cc(-c2cccc(O)c2)[nH]c2cc3c(cc12)OCO3 | > 100 | – | > 100 | – | > 100 | > 100 | > 100 | 1.07 | 23.8 | > 100 | 4 | 0.386 | > 100 | 4.39 | 83.5 | 8.27 | > 100 | > 36.5 | 8.67 | 20.5
N=C(N)c1ccc(/C=C/c2ccc(C(=N)N)cc2)cc1 | > 100 | > 100 | > 100 | > 100 | > 100 | > 100 | > 100 | > 100 | > 100 | > 100 | > 100 | > 100 | > 100 | – | > 100 | – | 65.2 | > 100 | > 100 | > 100
S=C(N1CCN(c2ccc(Cl)c(Cl)c2)CC1)N1CCN(c2ccc(Cl)c(Cl)c2)CC1 | 30.4 | 20.4 | 28.8 | – | 27.1 | – | 28.1 | 23.8 | 23.8 | 29.7 | 30.3 | 26.3 | 35.1 | – | 28.7 | 25.1 | 26.1 | 28 | 28.8 | –
CCCN(CCC)CCc1ccc(OC2=CCN(C)CC2)cc1 | > 100 | > 100 | > 100 | – | > 100 | 89.8 | 32.4 | > 100 | > 100 | > 100 | > 100 | > 100 | > 100 | – | 91.7 | > 100 | > 100 | > 100 | > 100 | –
O=C1C=Cc2c(Br)sc(Br)c21 | > 100 | 41.1 | 90.4 | 60 | > 100 | 48.4 | 64.6 | > 100 | – | > 100 | > 100 | 32.3 | 46 | > 100 | 84.9 | > 100 | 31.7 | 38.2 | 76.4 | > 100
CN1CCc2cc3c(c4c2C1C(O)c1ccccc1-4)OCO3 (stereo not given) | 19.4 | 18.2 | 20.3 | 7.22 | 24 | 25.1 | 23.2 | 16.1 | – | 48.2 | 53.9 | 44.1 | 10.8 | > 100 | 85.7 | > 100 | > 100 | 25.6 | 25.9 | 28.5
COc1cc(NC(C)c2ccc3c(c2)OCCO3)cc(OC)c1OC (stereo not given) | > 100 | > 100 | > 100 | > 100 | > 100 | > 100 | 67.8 | 30.2 | 75.6 | 64.7 | 91.4 | > 100 | > 100 | 60.4 | > 100 | – | > 100 | 94.1 | > 100 | –
